Source: article PMC5410297, “Sepia ink oligopeptide induces apoptosis and growth inhibition in human lung cancer cells” (Oncotarget, 2017)

How the values were obtained:
A549 and H1299 cells = experiment: Anti-proliferative effect, MTT and CCK-8 assays; type: cell-based, human; conditions: A549 and H1299, MTT and CCK-8, 5 μM, n = 3
Description: Cell proliferation and apoptosis are crucial markers of cancer metastasis and invasive properties. To explore whether the stable SIO has much better effect on inhibiting the proliferation of A549 and H1299 cells, MTT and CCK-8 assays (Supplementary Figure 1) were conducted to investigate the anti-proliferative effect in PBS, FITC, stable SIO and linear SIO treated groups. […] It was worth noting that the anti-proliferative effect of SIO was in a time-dependent manner, which was significant at 48 hours (54%), and was peaked at 72 hours (70%).
Figure 6 The strong cell penetration of stable SIO in A549 or H1299 cells inhibited cell proliferation and induced cell apoptosis FITC-Annexin V and propidium iodide (PI) containing apoptosis assay on A549 or H1299 cells treated with PBS (as blank), FITC (5 μM), linear SIO (5 μM) and stable SIO (5 μM) for 72 hours. (A and D) Apoptotic cells stained with Annexin V/PI were measured by flow cytometry. (B and E) The statistic results of cell apoptosis by flow cytometry. […] Percentage cell viability of the treated cells is calculated relative to that of PBS treated cells (with arbitrarily assigned 100% viability). […]
Cell viability was measured using Cell Counting The plates were processed as described above, and the Kit-8 (CCK-8, Sigma, St. Louis, MO, USA) following the OD450 of the supernatant was measured. […]

A549 cells = type: cell-based, human
Description: To quantitatively evaluate the corresponding cellular uptakes and average fluorescent intensity of linear SIO or stable SIO in human lung cancer cells, A549 cells were treated with PBS (as blank), FITC, stable SIO and linear SIO for 2 hours and then were analyzed by flow cytometry (Figure 5). […] Almost identical results were obtained from another lung cancer cell line H1299 (Figure 5D–5F). Therefore, the results were consistent with the cell fluorescent imaging analysis, which indicated stable SIO was much more appropriate to penetrate into cells.
Figure 5 Delivery efficiency of stable SIO or linear SIO in A549 or H1299 cells evaluated by flow cytometry (A and D) A549 or H1299 cells were treated with PBS (as blank), FITC (5 μM), linear SIO (5 μM) and stable SIO (5 μM) for 2 hours and the statistical count of cells were gathered by flow cytometry. […] Average fluorescence intensity presents the FITC intensity in the cells. […]
To test the delivery efficiency of stable SIO or linear SIO, A549 cells were cultured in the 6-well plates and were treated with PBS (as blank), FITC, stable FITC-SIO and linear FITC-SIO separately for […]. […] Samples were then analyzed by the FACSCalibur flow cytometer (Becton Dickinson). The cellular uptake and average fluorescent intensity were analyzed using Flowjo software.

## O=C1OC2(c3ccc(O)cc3Oc3cc(O)ccc32)c2ccc(N=C=S)cc21 [FITC]
A549 and H1299 cells
  inhibition of cell growth (in words): no obvious inhibition
A549 cells
  delivery (permeability) efficiency: ratio of fluorescent cell counts to total cell counts: 5.82 ± 0.95%
